Data on five molecules can be found in US20010018051A1, “Inhibition of allograft and concordant xenograft rejection” (priority 1990, published 2001).

Data set [1] deals with rabbit kidney xenografts. The note with it: rabbit kidney into cats; cited from earlier work.
Data set [2] is classed as in vivo. To be noted: doses of 2 mg/kg. The source says: (§1) The minimum dosage of cobra venom factor is species dependent and can readily be determined by the CH50 assay. […] Effective and non-toxic dosages of other complement inhibitors can also readily be determined by those skilled in the art, for example, using the CH50 assay.
In data set [3] the test system is hamster heart xenograft. The data set can be described thus: hamster heart xenograft survival in rats. To be noted: hamster heart in DA rats; i.m. on alternate days from time of transplantation (cyclosporin A 20 mg/kg, cobra venom factor 0.4 mg/kg). Format: in vivo, rat.
Description: All other cardiac vessels were ligated.
Injections were given on alternate days thereafter.
The subject of data set [4] is complement activity. Briefly: onset and duration of cobra venom factor activity after intramuscular administration. In kind it is in vivo. As to the method:
as §1
Cobra venom factor takes about 6 hours for its initial activity to take effect after intramuscular administration. Once the initial activity is observed, it can last for more than 1 day, for example 2 days, and so daily administration of cobra venom factor may not be necessary. In fact, it is preferred to administer cobra venom factor on alternate days, in which case the preferred daily dosages given above will be doubled on the day of administration.

With `C[C@H](CS)C(=O)N1CCC[C@H]1C(=O)O` [captopril], in data set [1], the “prevention of hyperacute rejection” value is “not prevented”.

Turning to `CCOC(=O)[C@H](CCc1ccccc1)N[C@@H](C)C(=O)N1CCC[C@H]1C(=O)O` [enalapril], in data set [1], the “prevention of hyperacute rejection” value is “not prevented”.

Consider `CCCCC[C@H](O)/C=C/[C@@H]1[C@H]2C/C(=C/CCCC(=O)O)O[C@H]2C[C@H]1O` [prostacyclin], for which the “prevention of hyperacute rejection” value in data set [1] is given as “not prevented”.

`O=C(O)c1cc(=O)c2c(OCC(O)COc3cccc4oc(C(=O)O)cc(=O)c34)cccc2o1` [sodium chromoglycate]: the “prevention of hyperacute rejection” value in data set [1] is on record as “not prevented”.

Take cobra venom factor: the toxicity result in data set [2] is reported as “do not appear to be toxic”. Also, the “median graft survival rate” value in data set [3] is 6 days. Moreover, in data set [4], the “duration of activity once observed” value is “more than 1 day” and the “time for initial activity to take effect” value is recorded as “about 6 hours”. Besides, in data set [1], the “prolongation in graft survival” value is on record as “up to seven days”.
